Data from patent US20240158393A1, “PYRIDONE COMPOUNDS AND METHODS OF USE” (Exelixis, Inc., priority 2021, published 2024).
pIC50: −log10 of the molar value.

Tests used:
Assay type in all cases: biochemical
Human Mer = target: T1, Human Mer (Homo sapiens, UniProt Q12866); test: Human Mer kinase assay (33P radiometric / HTRF KinEase); conditions: protocols of Examples C-1 and/or C-2
T1 construct: Human Mer (residues R557-E882 with H628Q and R794A, 0.7 nM); purchased Eurofins Pharma Discovery Services UK Limited (KinaseProfiler service)
T1 sequence (Q12866 557-882 limits assumed): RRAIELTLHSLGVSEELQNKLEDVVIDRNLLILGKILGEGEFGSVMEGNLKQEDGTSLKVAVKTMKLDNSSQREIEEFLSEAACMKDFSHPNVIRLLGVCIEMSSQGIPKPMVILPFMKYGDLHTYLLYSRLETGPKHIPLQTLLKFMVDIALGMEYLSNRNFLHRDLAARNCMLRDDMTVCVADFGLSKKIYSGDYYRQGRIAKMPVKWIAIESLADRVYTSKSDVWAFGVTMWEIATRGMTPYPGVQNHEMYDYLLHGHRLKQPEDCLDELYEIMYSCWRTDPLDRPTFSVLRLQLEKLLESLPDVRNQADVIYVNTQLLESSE
Protocol: (§1) Kinase activity and compound inhibition were investigated using the ^33P-Phosphoryl transfer radiometric kinase assay, performed using the KinaseProfiler™ service of Eurofins Pharma Discovery Services UK Limited. Dose-response experiments were performed using nine compound concentrations in a 96-well microtiter plate. For each assay, all compounds were prepared to a 50× final assay concentration (50 μM) in 100% DMSO, then diluted in a half-log series, with the final top concentration at 1 μM. This working stock of the compound was added to the assay well as the first component in the reaction, followed by the remaining components as detailed in the following assay protocols below. The positive control wells (100% kinase activity) contain all components of the reaction including 2% DMSO (control for solvent effects), except the compound of interest. Blank wells contain all components of the reaction, with the reference inhibitor, staurosporine. This reference compound was used to abolish kinase activity and generated the 0% kinase activity base-line. IC50 values were calculated by nonlinear regression analysis using the sigmoidal dose-response (variable slope) curve fit on XLFit version 5.3 (ID Business Solutions).
(§2) Kinase activity and compound inhibition were also investigated using the HTRF® KinEase assay (Cisbio Cat #62TKOPEB) per manufacturer's instructions. In short, compounds were delivered in 300 nL volumes at 10 different concentrations in DMSO (3% final) to empty 384-well assay plates (Corning cat #3824). A mixture of enzyme, 1 μM biotinylated peptide substrate, and buffer in 10 μL volume was added. The assay was started upon the addition of ATP (at Km). The 10 μL reaction was incubated at room temperature. The reaction was stopped upon the addition of detection buffer containing streptavidin-XL665 (5 μL) and TK antibody-Eu3+(5 μL). After a 60 min incubation at room temperature, the fluorescence at 665 nm and 620 nm was read on an Envision microplate reader (Perkin Elmer).
(§3) Kinase activity normalized to DMSO (100% activity) and reference compound at 1 μM and (0% activity) was calculated using the fluorescence ratio […]. IC50 values were calculated by nonlinear regression analysis using a 4-parameter logistic curve fit in ActivityBase XE (IDBS).
(§4) Example C-1: Human Mer (residues R557-E882 with H628Q and R794A, 0.7 nM) was incubated with 8 mM MOPS pH 7.0, 0.2 mM EDTA, 30 mM NaCl, 250 μM GGMEDIYFEFMGGKKK (SEQ ID NO: 2), 10 mM magnesium acetate, and 10 μM [γ-^33P-ATP]. The reaction was initiated by the addition of the Mg/ATP mix. After incubation for 40 minutes at room temperature, the reaction was stopped by the addition of phosphoric acid to a concentration of 0.5%. A reaction aliquot of 10 μL was then spotted onto a P30 filtermat and washed four times for 4 minutes in 0.425% phosphoric acid and once in methanol prior to drying and scintillation counting. Incorporated ^33P was measured using the Wallac Microbeta scintillation counter (Perkin Elmer).
Example C-2: Human MER (residues 528-999; CarnaBio, 1 ng/well) was also incubated with enzymatic buffer (Cisbio) supplemented with 5 mM MgCl2 and 1 mM DTT. The mixture was added to the pre-plated compounds. The reaction was initiated upon addition of ATP at Km (40 μM). The reaction was incubated at room temperature for 60 min and stopped upon the addition of SA-XL665 and TK-antibody both diluted in EDTA-containing kinase detection buffer (Cisbio). The kinase activity was calculated as stated above and the IC50 values were reported.

Human Met = target: T2, Human Met (Homo sapiens, UniProt P08581); test: Human Met kinase assay (33P radiometric / HTRF KinEase); conditions: protocols of Examples D-1 and/or D-2; read-out: c-Met IC50
T2 construct: Human MET (residues 956-1390)
Protocol: as §1, §2, §3
Example D-1: Human Met (residues R974-S1390 with A1209G and V1290L, 3.4 nM) was incubated with 8 mM MOPS pH 7.0, 0.2 mM EDTA, 250 μM KKKGQEEEYVFIE (SEQ ID NO:3), 1 mM sodium orthovanadate, 5 mM […], 10 mM magnesium acetate, and 10 μM [γ-^33P-ATP]. The reaction was initiated by the addition of the Mg/ATP mix. After incubation for 40 minutes at room temperature, the reaction was stopped by the addition of phosphoric acid to a concentration of 0.5%. A reaction aliquot of 10 μL was then spotted onto a P30 filtermat and washed four times for 4 minutes in 0.425% phosphoric acid and once in methanol prior to drying and scintillation counting. Incorporated ^33P was measured using the Wallac Microbeta scintillation counter (Perkin Elmer).
(§5) Example D-2: Human MET (residues 956-1390; CarnaBio, 0.1 ng/well) was also incubated with enzymatic buffer (Cisbio) supplemented with 5 mM MgCl2, 1 mM DTT and 1 mM MnCl2. The mixture was added to the pre-plated compounds. The reaction was initiated upon addition of ATP at Km (3.0 μM). The reaction was incubated at room temperature for 40 min and stopped upon the addition of SA-XL665 and TK-antibody both diluted in EDTA-containing kinase detection buffer (Cisbio). The kinase activity was calculated as stated above and the IC50 values were reported.

Human KDR = target: T3, Human KDR (Homo sapiens, UniProt P35968); test: Human KDR kinase assay (33P radiometric / HTRF KinEase); conditions: protocols of Examples B-1 and/or B-2
T3 construct: Human KDR (residues K790-V1356, 55 nM); purchased Eurofins Pharma Discovery Services UK Limited (KinaseProfiler, B-1) and/or CarnaBio (B-2)
Protocol: as §1, §2, §3
as §4, with “B-1:” for “C-1:”, “KDR” for “Mer”, “K790-V1356, 55” for “R557-E882 with H628Q and R794A, 0.7”, “0.33 mg/mL myelin basic protein,” for “30 mM NaCl, 250 μM GGMEDIYFEFMGGKKK (SEQ ID NO: 2),”
as §5, with “B-2:” for “D-2:”, “KDR” for “MET”, “790-1356;” for “956-1390;”, “MnCl2,” for “DTT”, “DTT.” for “MnCl2.”, “(4.0” for “(3.0”

T2 sequence (P08581 974-1390 limits assumed): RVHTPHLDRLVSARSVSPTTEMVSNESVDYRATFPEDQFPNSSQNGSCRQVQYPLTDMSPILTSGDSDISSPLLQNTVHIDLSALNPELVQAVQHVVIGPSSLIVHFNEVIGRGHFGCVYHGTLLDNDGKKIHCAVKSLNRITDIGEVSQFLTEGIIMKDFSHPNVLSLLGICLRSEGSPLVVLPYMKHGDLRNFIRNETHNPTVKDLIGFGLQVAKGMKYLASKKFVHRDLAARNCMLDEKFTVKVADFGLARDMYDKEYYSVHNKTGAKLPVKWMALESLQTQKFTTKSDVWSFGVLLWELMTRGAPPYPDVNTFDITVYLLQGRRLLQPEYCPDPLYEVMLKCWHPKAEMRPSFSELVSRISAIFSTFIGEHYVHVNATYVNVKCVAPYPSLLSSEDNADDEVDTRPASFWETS
T3 sequence (P35968 790-1356): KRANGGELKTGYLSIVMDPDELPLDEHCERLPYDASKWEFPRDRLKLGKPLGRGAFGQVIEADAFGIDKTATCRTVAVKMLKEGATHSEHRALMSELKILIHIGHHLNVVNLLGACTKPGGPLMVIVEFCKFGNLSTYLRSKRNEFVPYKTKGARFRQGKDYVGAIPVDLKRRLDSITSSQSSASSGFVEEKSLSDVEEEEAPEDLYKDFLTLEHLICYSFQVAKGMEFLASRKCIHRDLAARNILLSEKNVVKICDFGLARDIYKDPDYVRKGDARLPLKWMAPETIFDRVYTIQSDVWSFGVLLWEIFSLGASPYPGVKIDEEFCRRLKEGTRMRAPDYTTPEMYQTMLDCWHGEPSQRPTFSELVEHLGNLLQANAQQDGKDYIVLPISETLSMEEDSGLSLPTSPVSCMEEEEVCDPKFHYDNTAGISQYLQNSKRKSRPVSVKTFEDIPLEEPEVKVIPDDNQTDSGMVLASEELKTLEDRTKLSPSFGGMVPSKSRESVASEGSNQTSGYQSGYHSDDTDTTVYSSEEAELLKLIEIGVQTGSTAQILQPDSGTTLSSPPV

| SMILES | pIC50 (Human Mer) | pIC50 (Human Met) | pIC50 (Human KDR) |
| --- | --- | --- | --- |
| C=C(C)c1c(C)nc(C)c(C(=O)Nc2ccc(Oc3ccnc4cc(OC)c(OC)nc34)cc2)c1O [Compound 4, N-[4-[(6,7-Dimethoxy-1,5-naphthyridin-4-yl)oxy]phenyl]-4-hydroxy-2,6-dimethyl-5-prop-1-en-2-ylpyridine-3-carboxamide] | ≥ 7.00 | ≥ 7.00 | ≥ 7.00 |
| COc1cc2nccc(Oc3ccc(NC(=O)c4c(C)n(C)c(C)c(C(C)C)c4=O)cc3F)c2nc1OC [Compound 56, N-[4-[(6,7-Dimethoxy-1,5-naphthyridin-4-yl)oxy]-3-fluorophenyl]-1,2,6-trimethyl-4-oxo-5-propan-2-ylpyridine-3-carboxamide] | ≥ 7.00 | < 6.52 | < 6.52 |
| COc1cc2nccc(Oc3ccc(NC(=O)c4c(C)nc(C)c(OC)c4O)cc3F)c2nc1OC [Compound 62, N-[4-[(6,7-Dimethoxy-1,5-naphthyridin-4-yl)oxy]-3-fluorophenyl]-4-hydroxy-5-methoxy-2,6-dimethylpyridine-3-carboxamide] | ≥ 7.00 | < 6.52 | ≥ 7.00 |
| COc1cnc2c(Oc3ccc(NC(=O)c4cnc(C)c(C5=CCCCC5)c4O)cc3F)ccnc2c1 [Compound 1-8, 5-(Cyclohexen-1-yl)-N-[3-fluoro-4-[(7-methoxy-1,5-naphthyridin-4-yl)oxy]phenyl]-4-hydroxy-6-methylpyridine-3-carboxamide] | ≥ 7.00 | ≥ 7.00 | ≥ 7.00 |
| COc1cc2nccc(Oc3ccc(NC(=O)c4c5n(c(C)c(C6=CCCC6)c4=O)CCOC5)cc3F)c2nc1OC [Compound 69, 7-(Cyclopenten-1-yl)-N-[4-[(6,7-dimethoxy-1,5-naphthyridin-4-yl)oxy]-3-fluorophenyl]-6-methyl-8-oxo-3,4-dihydro-1H-pyrido[2,1-c][1,4]oxazine-9-carboxamide] | ≥ 7.00 | ≥ 7.00 | ≥ 7.00 |
| COc1cc2nccc(Oc3cc(F)c(NC(=O)c4c(C)nc(C)c(OC)c4O)cc3F)c2nc1OC [Compound 68, N-[4-[(6,7-dimethoxy-1,5-naphthyridin-4-yl)oxy]-2,5-difluorophenyl]-4-hydroxy-5-methoxy-2,6-dimethylpyridine-3-carboxamide] | < 6.52 | < 6.52 | ≥ 7.00 |
| C=C(C)c1c(C)nc(C)c(C(=O)Nc2ccc(Oc3ccnc4cc(OC)c(OC)nc34)c(F)c2)c1O [Compound 5, N-[4-[(6,7-Dimethoxy-1,5-naphthyridin-4-yl)oxy]-3-fluorophenyl]-4-hydroxy-2,6-dimethyl-5-prop-1-en-2-ylpyridine-3-carboxamide] | ≥ 7.00 | ≥ 7.00 | ≥ 7.00 |
| COc1cc2nccc(Oc3ccc(NC(=O)c4c(C)n(C)c(C)c(C(C)C)c4=O)cc3)c2nc1OC [Compound 57, N-[4-[(6,7-Dimethoxy-1,5-naphthyridin-4-yl)oxy]phenyl]-1,2,6-trimethyl-4-oxo-5-propan-2-ylpyridine-3-carboxamide] | ≥ 7.00 | < 6.52 | ≥ 7.00 |

Next, values leading:

| pIC50 (Human Mer) | pIC50 (Human Met) | pIC50 (Human KDR) | SMILES |
| --- | --- | --- | --- |
| < 6.52 | < 6.52 | < 6.52 | COc1cc2nccc(Oc3ccc(NC(=O)c4c(C)n(C)c(C)c(OC)c4=O)cc3)c2nc1OC [Compound 76, N-[4-[(6,7-Dimethoxy-1,5-naphthyridin-4-yl)oxy]phenyl]-5-methoxy-1,2,6-trimethyl-4-oxopyridine-3-carboxamide] |
| < 6.52 | < 6.52 | ≥ 7.00 | COCCOc1cc2ncnc(Oc3ccc(NC(=O)c4c(C)nc(C)c(OC)c4O)cc3F)c2nc1OC [Compound 72, N-[3-Fluoro-4-[6-methoxy-7-(2-methoxyethoxy)pyrido[3,2-d]pyrimidin-4-yl]oxyphenyl]-4-hydroxy-5-methoxy-2,6-dimethylpyridine-3-carboxamide] |
| < 6.52 | < 6.52 | ≥ 7.00 | COCCOc1cc2nccc(Oc3ccc(NC(=O)c4c(C)nc(C)c(OC)c4O)cc3)c2nc1OC [Compound 71, 4-Hydroxy-5-methoxy-N-[4-[[6-methoxy-7-(2-methoxyethoxy)-1,5-naphthyridin-4-yl]oxy]phenyl]-2,6-dimethylpyridine-3-carboxamide] |
| < 6.52 | < 6.52 | < 6.52 | COc1cc2nccc(Oc3ccc(NC(=O)c4c(C)n(C)c(C)c(OC)c4=O)cc3F)c2nc1OC [Compound 77, N-[4-[(6,7-Dimethoxy-1,5-naphthyridin-4-yl)oxy]-3-fluorophenyl]-5-methoxy-1,2,6-trimethyl-4-oxopyridine-3-carboxamide] |
| < 6.52 | < 6.52 | < 6.52 | COc1cnc2c(Oc3ccc(NC(=O)c4c(C)n(C)c(C)c(OC)c4=O)cc3F)ccnc2c1 [Compound 75, N-[3-Fluoro-4-[(7-methoxy-1,5-naphthyridin-4-yl)oxy]phenyl]-5-methoxy-1,2,6-trimethyl-4-oxopyridine-3-carboxamide] |
